The test deals with 186277-243-T-J2-PDC multi-cell spheroid viability. In words: Anticancer human tumor 186277-243-T-J2-PDC patient-derived colon adenocarcinoma cell line growth inhibition [PI3K]. The following applies: for viability, T/C: stronger effect = lower value. In outline: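 Tumor cells were combined with HUVEC and MSCs into spheroids, then dosed with PI3K-inhibitor combinations over half-log ranges capped near clinical Cmax or 10 microM.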

The mark [1] stands for this setting: curve of first compound, second compound 0.00316 µM.
Where [2] appears, read: curve of first compound, second compound 0.01 µM.
The mark [3] stands for this setting: curve of first compound, second compound 0.0316 µM.
Where [4] appears, read: curve of first compound, second compound 0.1 µM.
The mark [5] stands for this setting: curve of first compound, second compound 0.316 µM.
Setting [6] is: curve of first compound, second compound 1 µM.
Setting [7] is: second compound 0.00316 µM, first compound 0.0316 µM.
The mark [8] stands for this setting: second compound 0.00316 µM, first compound 0.1 µM.
Where [9] appears, read: second compound 0.01 µM, first compound 0.0316 µM.
[10] abbreviates: second compound 0.01 µM, first compound 0.1 µM.
[11] abbreviates: second compound 0.0316 µM, first compound 0.0316 µM.
Setting [12] is: second compound 0.0316 µM, first compound 0.1 µM.
Setting [13] is: second compound 0.1 µM, first compound 0.0316 µM.
Where [14] appears, read: second compound 0.1 µM, first compound 0.1 µM.
[15] abbreviates: second compound 0.316 µM, first compound 0.0316 µM.
The mark [16] stands for this setting: second compound 0.316 µM, first compound 0.1 µM.
Where [17] appears, read: second compound 1 µM, first compound 0.0316 µM.
[18] abbreviates: second compound 1 µM, first compound 0.1 µM.

Several values for one entry are separate records, joined by “and”; a condition that tells them apart may be missing. Equal values may be shown once.
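Also: spheroids exposed to compounds for seven days before viability reading.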
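For viability, T/C in this document: 100% = DMSO vehicle control viability.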

As for `Cn1nccc1Nc1nccc(-c2ccn(C(CO)c3ccc(Cl)c(F)c3)c(=O)c2)n1` (centres undefined) + CC(Nc1ccc2c(c1)OCCn1cc(N3C(=O)OCC3C(F)F)nc1-2)C(N)=O, the IC50 is 1.87 µM under setting [1]; 1.77 µM under setting [2]; 1.47 µM under setting [3]; 0.377 µM under setting [4]; 0.0747 µM under setting [5]; under 0.0316 µM under setting [6]. Besides, the viability, T/C runs as follows: under setting [7], 105%; under setting [8], 114%; (second compound 0.00316 µM, first compound 0.316 µM) 113%; (second compound 0.00316 µM, first compound 1 µM) 69.3%; (second compound 0.00316 µM, first compound 3.16 µM) 37.2%; (second compound 0.00316 µM, first compound 10 µM) 22.8%. Further, the viability, T/C is 111% under setting [9]; 121% under setting [10]; 109% (second compound 0.01 µM, first compound 0.316 µM); 67.3% (second compound 0.01 µM, first compound 1 µM); 33.5% (second compound 0.01 µM, first compound 3.16 µM); 22% (second compound 0.01 µM, first compound 10 µM). Further, the viability, T/C by setting is: under setting [11], 103%; under setting [12], 110%; (second compound 0.0316 µM, first compound 0.316 µM) 98.4%; (second compound 0.0316 µM, first compound 1 µM) 61.1%; (second compound 0.0316 µM, first compound 3.16 µM) 28.1%; (second compound 0.0316 µM, first compound 10 µM) 20.9%. In addition, the viability, T/C under setting [13] is 124%; the viability, T/C under setting [14] was 86.5%; the viability, T/C (second compound 0.1 µM, first compound 0.316 µM) was 54.2%; the viability, T/C (second compound 0.1 µM, first compound 1 µM) is 28.9%; the viability, T/C (second compound 0.1 µM, first compound 3.16 µM) is 16.4%; the viability, T/C (second compound 0.1 µM, first compound 10 µM) is 7.14%. Moreover, the viability, T/C reads like this: under setting [15], 70.4%; under setting [16], 44.5%; (second compound 0.316 µM, first compound 0.316 µM) 20.3%; (second compound 0.316 µM, first compound 1 µM) 15.9%; (second compound 0.316 µM, first compound 3.16 µM) 9.67%; (second compound 0.316 µM, first compound 10 µM) 4.2%. Besides, the viability, T/C is 38.1% under setting [17]; 29.4% under setting [18]; 14.2% (second compound 1 µM, first compound 0.316 µM); 9.05% (second compound 1 µM, first compound 1 µM); 10.6% (second compound 1 µM, first compound 3.16 µM); 3.67% (second compound 1 µM, first compound 10 µM).
Regarding `CC1(C)CCC(CN2CCN(c3ccc(C(=O)NS(=O)(=O)c4ccc(NCC5CCOCC5)c([N+](=O)[O-])c4)c(Oc4cnc5[nH]ccc5c4)c3)CC2)=C(c2ccc(Cl)cc2)C1`, the viability, T/C runs as follows: (compound 0.0316 µM) 98% [middle of 4 runs]; (compound 0.1 µM) 105% [middle of 4 runs]; (compound 0.316 µM) 100% [middle of 4 runs]; (compound 1 µM) 97.9% [middle of 4 runs].
`CCCS(=O)(=O)Nc1ccc(F)c(C(=O)c2c[nH]c3ncc(-c4ccc(Cl)cc4)cc23)c1F`: the viability, T/C is, setting by setting: (compound 0.0316 µM) 94.8% [middle of 4 runs]; (compound 0.1 µM) 89.2% [middle of 4 runs]; (compound 0.316 µM) 86.2% [middle of 4 runs]; (compound 1 µM) 86.7% [middle of 4 runs]; (compound 3.16 µM) 84.1% [middle of 4 runs]; (compound 10 µM) 6.39% [middle of 4 runs]. In addition, the IC50 (curve of compound) was 5.39 µM [middle of 4 runs].
Turning to `CC(C)NCC(C(=O)N1CCN(c2ncnc3c2C(C)CC3O)CC1)c1ccc(Cl)cc1` (centres undefined), the viability, T/C by setting is: (compound 0.0316 µM) 93.8% [middle of 4 runs]; (compound 0.1 µM) 88.2% [middle of 4 runs]; (compound 0.316 µM) 77.6% [middle of 4 runs]; (compound 1 µM) 55.6% [middle of 4 runs]; (compound 3.16 µM) 45.9% [middle of 4 runs]; (compound 10 µM) 28.2% (2×) and 31.3% and 28.7%. Moreover, the IC50 (curve of compound) was 1.99 µM [middle of 4 runs].
Consider `CC(=O)c1c(C)c2cnc(Nc3ccc(N4CCNCC4)cn3)nc2n(C2CCCC2)c1=O` + COc1c(OCCCN2CCOCC2)ccc2c3n(c(=NC(=O)c4cnc(N)nc4)nc12)CCN3, for which the IC50 under setting [1] was over 0.1 µM; the IC50 under setting [2] was over 0.1 µM; the IC50 under setting [3] amounted to 0.0574 µM; the IC50 under setting [4] is under 0.000316 µM; the IC50 under setting [5] is under 0.000316 µM; the IC50 under setting [6] is under 0.000316 µM. For the same molecule, the viability, T/C runs as follows: (second compound 0.00316 µM, first compound 0.000316 µM) 101%; (second compound 0.00316 µM, first compound 0.001 µM) 107%; (second compound 0.00316 µM, first compound 0.00316 µM) 97.3%; (second compound 0.00316 µM, first compound 0.01 µM) 94.9%; under setting [7], 112%; under setting [8], 113%. In addition, the viability, T/C is, setting by setting: (second compound 0.01 µM, first compound 0.000316 µM) 110%; (second compound 0.01 µM, first compound 0.001 µM) 102%; (second compound 0.01 µM, first compound 0.00316 µM) 87.9%; (second compound 0.01 µM, first compound 0.01 µM) 91.7%; under setting [9], 117%; under setting [10], 99.5%. Moreover, the viability, T/C by setting is: (second compound 0.0316 µM, first compound 0.000316 µM) 64.2%; (second compound 0.0316 µM, first compound 0.001 µM) 67.2%; (second compound 0.0316 µM, first compound 0.00316 µM) 68.8%; (second compound 0.0316 µM, first compound 0.01 µM) 58.9%; under setting [11], 51.3%; under setting [12], 47.2%. Moreover, the viability, T/C runs as follows: (second compound 0.1 µM, first compound 0.000316 µM) 15.6%; (second compound 0.1 µM, first compound 0.001 µM) 14.4%; (second compound 0.1 µM, first compound 0.00316 µM) 13.9%; (second compound 0.1 µM, first compound 0.01 µM) 17.4%; under setting [13], 11.6%; under setting [14], 13.2%. Also, the viability, T/C (second compound 0.316 µM, first compound 0.000316 µM) was 3.72%; the viability, T/C (second compound 0.316 µM, first compound 0.001 µM) was 3.94%; the viability, T/C (second compound 0.316 µM, first compound 0.00316 µM) is 6.08%; the viability, T/C (second compound 0.316 µM, first compound 0.01 µM) was 4.53%; the viability, T/C under setting [15] is 4.8%; the viability, T/C under setting [16] was 5.23%. Also, the viability, T/C is 3.84% (second compound 1 µM, first compound 0.000316 µM); 2.22% (second compound 1 µM, first compound 0.001 µM); 3.44% (second compound 1 µM, first compound 0.00316 µM); 3.39% (second compound 1 µM, first compound 0.01 µM); 2.44% under setting [17]; 1.63% under setting [18].
Regarding `C[C@@H](NC(=O)c1ncnc(N)c1Cl)c1ncc(C(=O)Nc2cc(C(F)(F)F)c(Cl)cn2)s1`, the viability, T/C (compound 0.0316 µM) was 95.7% [middle of 4 runs]; the viability, T/C (compound 0.1 µM) was 92.9% [middle of 4 runs]; the viability, T/C (compound 0.316 µM) is 92.3% [middle of 4 runs]; the viability, T/C (compound 1 µM) is 99.5% [middle of 4 runs]; the viability, T/C (compound 3.16 µM) is 105% [middle of 4 runs]; the viability, T/C (compound 10 µM) was 79.9% [middle of 4 runs]. For the same molecule, the concentration for half-maximal inhibition (IC50) (curve of compound) is over 10 µM.

The values above are taken from PubChem BioAssay AID1963983 (Molecular Pharmacology Branch, DTP, NCI, 2024).
